Like-named read-outs stand apart in the source and are kept apart here. Where only a bound is given, the exact number is not on record here.

In test [1] the test system is RANTES secretion by prostate cancer DU145 cells. The test is described as follows: ELISA to detect secreted RANTES, prostate cancer DU145 cells. The following applies: Homo sapiens, DU-145; DU145 cells, 20 hours; read-out: IC50, inhibition of the secretion of RANTES. The format is cell-based. Here is the method: Prostate cancer DU145 cells were seeded at 20,000 cells/well in a 96-well tissue culture plate. The following day media was removed and replaced with complete media containing IKKε/TBK1 inhibitor (starting concentration 25 μM, 1:3 dilutions, final DMSO 0.05%). Cells were incubated for 20 hours and culture supernatant used to determine secreted RANTES levels using a commercially available ELISA kit (R & D Systems, Minneapolis, Minn.).
(In general: In an ELISA, binding on a coated surface is turned into a signal by an enzyme label.)

For the next test, the target named is T1, IKKε (Homo sapiens, UniProt Q14164).
T1 construct: His-tag (in-house Sf9 preparation) or GST-tag (purchased Invitrogen preparation); these are alternatives, not both on one protein; host or cells: Sf9 cells
T1 sequence (Q14164 1-716): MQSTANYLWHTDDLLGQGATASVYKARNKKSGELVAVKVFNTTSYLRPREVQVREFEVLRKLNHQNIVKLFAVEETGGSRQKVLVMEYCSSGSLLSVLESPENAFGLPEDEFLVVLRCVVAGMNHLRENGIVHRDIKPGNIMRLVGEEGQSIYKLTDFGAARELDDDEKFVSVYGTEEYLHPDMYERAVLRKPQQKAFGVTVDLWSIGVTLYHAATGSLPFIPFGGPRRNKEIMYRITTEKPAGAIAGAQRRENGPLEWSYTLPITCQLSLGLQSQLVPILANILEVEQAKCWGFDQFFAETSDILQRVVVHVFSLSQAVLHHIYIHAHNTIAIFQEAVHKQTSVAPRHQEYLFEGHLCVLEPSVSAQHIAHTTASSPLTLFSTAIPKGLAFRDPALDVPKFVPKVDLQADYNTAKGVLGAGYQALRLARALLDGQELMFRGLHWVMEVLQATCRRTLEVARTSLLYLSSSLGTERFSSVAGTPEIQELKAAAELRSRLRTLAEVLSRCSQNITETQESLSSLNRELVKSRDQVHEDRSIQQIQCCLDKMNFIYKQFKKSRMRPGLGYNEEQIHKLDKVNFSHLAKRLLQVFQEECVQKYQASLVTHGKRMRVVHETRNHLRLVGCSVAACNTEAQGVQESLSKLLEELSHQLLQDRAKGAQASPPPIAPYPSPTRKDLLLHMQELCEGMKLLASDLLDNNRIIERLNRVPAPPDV
The test is described as follows: In-vitro IKKε kinase assay (radiolabelled ATP, filterplate). The format is biochemical. An outline of the steps: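 His-tagged IKKε from Sf9 cells or GST-tagged IKKε, with myelin basic protein, casein or dephosphorylated casein as substrate and 32 μM ATP (2× Km) plus [γ^33]ATP. "Normal" assay used 0.1 μg/ml enzyme; "sensitized" used 0.015 μg/ml with dephosphorylated casein only. Stopped after 30–45 min with phosphoric acid; P-81 filter counts normalized to DMSO after background subtraction.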

Test [2] deals with IKKε-mediated phosphorylation of IRF3. The test is described as follows: ELISA for in-situ phosphorylation of IRF3 (phospho-Ser396) in HEK293T cells cotransfected with IRF3 and IKKε. The format is cell-based. As to conditions: Homo sapiens, HEK-293T, 20 h, HEK293T cells, 20 hours, read-out: IC50, in-situ IKKε-mediated phosphorylation of IRF3. An outline of the steps: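 HEK293T cells cotransfected with IRF3 and IKKε were treated with compound for 20 h, and lysates were assayed by ELISA for phospho-Ser396 IRF3, normalized to DMSO. Viability was checked in parallel by CellTiter-Glo. For TBK1, cells cotransfected with IRF7 and TBK1 were treated overnight and probed by Western blot for phospho-Ser477/Ser479 IRF7.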

Setting [3] is: "sensitized" assay, read-out: IC50, inhibition of the kinase activity of IKKε.
The mark [4] stands for this setting: in-vitro IKKε kinase inhibition assays, given as 0.005 μM (5 nM), read-out: IKKε kinase inhibitory activity (IC50 value).
Setting [5] is: range given from about 1 μM to about 250 nM.

For orientation: IC50 means the concentration at which inhibition is half-maximal. `N#Cc1cc(-c2ccnc(Nc3cnc(N4CCOCC4)nc3)n2)ccc1OC1CCOCC1` [Example Compound 2, 5-(2-{[2-(Morpholin-4-yl)pyrimidin-5-yl]amino}pyrimidin-4-yl)-2-(tetrahydro-2H-pyran-4-yloxy)benzonitrile]: the IC50 in test [1] was 60 to 125 nM.

For the molecule `N#Cc1cc(-c2ccnc(Nc3cccnc3)n2)ccc1OC1CCOCC1` [Example Compound 11, 5-[2-(Pyridin-3-ylamino)pyrimidin-4-yl]-2-(tetrahydro-2H-pyran-4-yloxy)benzonitrile], the figures for the IC50 (in test [1]; on IKKε (setting [3]); on IKKε (setting [4])) were 60 to 125 nM, below 5 nM and below 5 nM, respectively.

On to `CN(CCO)c1ccc(Nc2nccc(-c3ccc(OCC4CC4)c(C#N)c3)n2)cn1` [Example Compound 111, 2-(Cyclopropylmethoxy)-5-[2-({6-[(2-hydroxyethyl)(methyl)amino]pyridin-3-yl}amino)pyrimidin-4-yl]benzonitrile], for which the concentration for half-maximal inhibition (IC50) in test [1] was 20 to 60 nM; on IKKε (setting [3]), below 5 nM; at IKKε (setting [4]) it was below 5 nM.

In the case of `COC1CN(Cc2ccc(Nc3nccc(-c4ccc(NC(=O)C5CC5)c(C#N)c4)n3)cn2)C1` [Example Compound 146, N-{2-Cyano-4-[2-({6-[(3-methoxyazetidin-1-yl)methyl]pyridin-3-yl}amino)pyrimidin-4-yl]phenyl}cyclopropanecarboxamide], the 50% inhibitory concentration (IC50) in test [1] was in the range of 60 to 125 nM.

Turning to `COC1CN(Cc2cc(Nc3nccc(-c4ccc(OC5CCOCC5)c(C#N)c4)n3)ccn2)C1` [Example Compound 219, 5-[2-({2-[(3-Methoxyazetidin-1-yl)methyl]pyridin-4-yl}amino)pyrimidin-4-yl]-2-(tetrahydro-2H-pyran-4-yloxy)benzonitrile], the half-inhibitory concentration (IC50) on IKKε (setting [3]) is below 5 nM; in test [2] it was 1000 to 5000 nM.

Take `COc1cc(Nc2nccc(-c3ccc(O[C@@H]4CCN(C(=O)CO)C4)c(C#N)c3)n2)ccn1` [Example Compound 225, 2-{[(3R)-1-(Hydroxyacetyl)pyrrolidin-3-yl]oxy}-5-{2-[(2-methoxypyridin-4-yl)amino]pyrimidin-4-yl}benzonitrile]: the values for the IC50 (at IKKε (setting [3]); in test [2]) were below 5 nM and 1000 to 5000 nM, respectively.

Regarding `N#Cc1cc(-c2ccnc(Nc3ccnc(CO)c3)n2)ccc1OC1CCOCC1` [Example Compound 227, 5-(2-{[2-(Hydroxymethyl)pyridin-4-yl]amino}pyrimidin-4-yl)-2-(tetrahydro-2H-pyran-4-yloxy)benzonitrile], the figures for the half-maximal inhibitory concentration (IC50) (on IKKε (setting [3]); in test [2]) were below 5 nM and below 100 nM, respectively.

Turning to `CC(=O)NCc1ccc(Nc2nccc(-c3ccc(OC4CCOCC4)c(C#N)c3)n2)cn1` [Example Compound 228, N-{[5-({4-[3-Cyano-4-(tetrahydro-2H-pyran-4-yloxy)phenyl]pyrimidin-2-yl}amino)pyridin-2-yl]methyl}acetamide], the IC50 on IKKε (setting [3]) was below 5 nM; in test [2] (setting [5]), 250 to 1000 nM.

In the case of `N#Cc1cc(-c2ccnc(Nc3ccc(CNC(=O)N4CCOCC4)nc3)n2)ccc1OC1CCOCC1` [Example Compound 229, N-{[5-({4-[3-Cyano-4-(tetrahydro-2H-pyran-4-yloxy)phenyl]pyrimidin-2-yl}amino)pyridin-2-yl]methyl}morpholine-4-carboxamide], the values for the half-inhibitory concentration (IC50) (at IKKε (setting [3]); in test [2]) were below 5 nM and 100 to 250 nM, respectively.

As for `COC(=O)c1cc(Nc2nccc(-c3ccc(OC4CCOCC4)c(C#N)c3)n2)ccn1` [Example Compound 230, Methyl 4-({4-[3-cyano-4-(tetrahydro-2H-pyran-4-yloxy)phenyl]pyrimidin-2-yl}amino)pyridine-2-carboxylate], the figures for the 50% inhibitory concentration (IC50) (on IKKε (setting [3]); in test [2]) were below 5 nM and 100 to 250 nM, respectively.

As to `CC(O)c1ccc(Nc2nccc(-c3ccc(OC4CCOCC4)c(C#N)c3)n2)cn1` (stereo not drawn) [Example Compound 231, 5-(2-{[6-(1-Hydroxyethyl)pyridin-3-yl]amino}pyrimidin-4-yl)-2-(tetrahydro-2H-pyran-4-yloxy)benzonitrile], the half-inhibitory concentration (IC50) at IKKε (setting [3]) is below 5 nM; in test [2], 100 to 250 nM.

`N#Cc1cc(-c2ccnc(Nc3ccc(C(=O)N4CCCC4)nc3)n2)ccc1OC1CCN(C(=O)CO)CC1` [Example Compound 232, 2-{[1-(Hydroxyacetyl)piperidin-4-yl]oxy}-5-(2-{[6-(pyrrolidin-1-ylcarbonyl)pyridin-3-yl]amino}pyrimidin-4-yl)benzonitrile]: the half-maximal inhibitory concentration (IC50) was below 5 nM at IKKε (setting [3]) and 100 to 250 nM in test [2].

On to `N#Cc1cc(-c2ccnc(Nc3ccnc(N4CC(O)C4)c3)n2)ccc1NC(=O)C1CC1` [Example Compound 237, N-[2-Cyano-4-(2-{[2-(3-hydroxyazetidin-1-yl)pyridin-4-yl]amino}pyrimidin-4-yl)phenyl]cyclopropanecarboxamide], for which the IC50 on IKKε (setting [3]) is below 5 nM; in test [2], 1000 to 5000 nM.

For the molecule `COCCNc1cc(Nc2nccc(-c3ccc(OC4CCN(C(=O)CO)CC4)c(C#N)c3)n2)ccn1` [Example Compound 238, 2-{[1-(Hydroxyacetyl)piperidin-4-yl]oxy}-5-[2-({2-[(2-methoxyethyl)amino]pyridin-4-yl}amino)pyrimidin-4-yl]benzonitrile], the values for the IC50 (at IKKε (setting [3]); in test [2] (setting [5])) were below 5 nM and 250 to 1000 nM, respectively.

Regarding `N#Cc1cc(-c2ccnc(Nc3ccnc(NCCO)c3)n2)ccc1OC1CCN(C(=O)CO)CC1` [Example Compound 239, 2-{[1-(Hydroxyacetyl)piperidin-4-yl]oxy}-5-[2-({2-[(2-hydroxyethyl)amino]pyridin-4-yl}amino)pyrimidin-4-yl]benzonitrile], the IC50 on IKKε (setting [3]) was below 5 nM; in test [2], 1000 to 5000 nM.

Consider `N#Cc1cc(-c2ccnc(Nc3ccnc(N4CC(O)C4)c3)n2)ccc1OC1CCN(C(=O)CO)CC1` [Example Compound 240, 2-{[1-(Hydroxyacetyl)piperidin-4-yl]oxy}-5-(2-{[2-(3-hydroxyazetidin-1-yl)pyridin-4-yl]amino}pyrimidin-4-yl)benzonitrile], for which the figures for the 50% inhibitory concentration (IC50) (on IKKε (setting [3]); in test [2]) were below 5 nM and 1000 to 5000 nM, respectively.

Consider `CC(c1ccc(Nc2nccc(-c3ccc(OC4CCOCC4)c(C#N)c3)n2)cn1)N1CC(N(C)C)C1` (stereo not drawn) [Example Compound 244, 5-{2-[(6-{1-[3-(Dimethylamino)azetidin-1-yl]ethyl}pyridin-3-yl)amino]pyrimidin-4-yl}-2-(tetrahydro-2H-pyran-4-yloxy)benzonitrile], for which the half-inhibitory concentration (IC50) at IKKε (setting [3]) is below 5 nM; in test [2], below 100 nM.

`COC1CN(c2cc(Nc3nccc(-c4ccc(OC5CCN(C(=O)CO)CC5)c(C#N)c4)n3)ccn2)C1` [Example Compound 249, 2-{[1-(Hydroxyacetyl)piperidin-4-yl]oxy}-5-(2-{[2-(3-methoxyazetidin-1-yl)pyridin-4-yl]amino}pyrimidin-4-yl)benzonitrile]: the IC50 at IKKε (setting [3]) is below 5 nM; in test [2], below 100 nM.

As for `CC(c1ncc(Nc2nccc(-c3ccc(OC4CCOCC4)c(C#N)c3)n2)cc1F)N1CC(N(C)C)C1` (stereo not drawn) [Example Compound 250, 5-{2-[(6-{1-[3-(Dimethylamino)azetidin-1-yl]ethyl}-5-fluoropyridin-3-yl)amino]pyrimidin-4-yl}-2-(tetrahydro-2H-pyran-4-yloxy)benzonitrile], the figures for the IC50 (at IKKε (setting [3]); in test [2]) were below 5 nM and 100 to 250 nM, respectively.

`CC(c1ncc(Nc2nccc(-c3ccc(OC4CCOCC4)c(C#N)c3)n2)cc1F)N1CCOCC1` (stereo not drawn) [Example Compound 251]: the half-maximal inhibitory concentration (IC50) was below 5 nM at IKKε (setting [3]) and 100 to 250 nM in test [2].

Take `CC(c1ccc(Nc2nccc(-c3ccc(OC4CCOCC4)c(C#N)c3)n2)cn1)N1CCOCC1` (stereo not drawn) [Example Compound 252, 5-[2-({6-[1-(Morpholin-4-yl)ethyl]pyridin-3-yl}amino)pyrimidin-4-yl]-2-(tetrahydro-2H-pyran-4-yloxy)benzonitrile]: the values for the IC50 (on IKKε (setting [3]); in test [2]) were below 5 nM and below 100 nM, respectively.

Values taken from patent US20140288044A1, “COMPOSITIONS AND THERAPEUTIC USES OF IKK-RELATED KINASE EPSILON AND TANKBINDING KINASE 1 INHIBITORS” (Alzheimer's Institute of America, Inc., priority 2011, published 2014).
